Data on 14 molecules can be found in article PMC8976226 (Mutagenesis, 2022).

Data set [1] relates to GADD45a gene. The note with it: published fragrance safety assessment; cited from earlier work.
For data set [2] the following is noted: weight of evidence of all available in vitro and in vivo data.
Data set [3] relates to human peripheral lymphocytes. The conditions noted are these: cited from earlier work.
Data set [4] concerns mammalian cell. The experiment in a line: In vitro mammalian cell micronucleus test. It counts as cell-based. The note with it: overall outcome in current dataset.
Data set [5] relates to mouse. The conditions noted are these: cited from earlier work.
Data set [6] concerns GADD45a gene. Put plainly: BlueScreen HC assay. The note with it: fragrance materials, TK6 cells.
Data set [7] concerns Salmonella typhimurium, Escherichia coli tester strains. The note with it: cited from earlier work.
For data set [8] the test system is unchanged. The experiment in a line: Bacterial reverse mutation test. The format is cell-based. The note with it: overall outcome.
Data set [9] concerns L5178 TK +/− cell. The conditions noted are these: cited from earlier work.
For data set [10], the system named is Chinese hamster V79 cells. The conditions noted are these: cited from earlier work.
The conditions of data set [11]: cited from earlier work.
For data set [12], the system named is Chinese hamster lung, ovary, or fibroblast cells. The conditions noted are these: ref RIFM Database, cited from earlier work; for chromosomal aberration assay result: Chinese hamster lung, ovary, or fibroblast cells.
The subject of data set [13] is reconstructed skin (EpiDerm™). The conditions noted are these: cited from earlier work.
The test system of data set [14] is mice. The conditions noted are these: cited from earlier work.

Where a name gives a salt, the structure may show the parent alone. Read-outs that look alike come from different tables or passages of the source.

With `CCCCCCC(OCC)OCC` [1,1-diethoxyheptane], the “BlueScreen HC result” value in [1] is reported as “negative”.
Turning to `CC12CCCC(C)(CC1)C2=NO` [1,5-dimethylbicyclo[3.2.1]octan-8-one-oxime], the “genotoxic potential conclusion (WoE)” value in data set [2] was “not genotoxic”. In data set [3] (3- and 24- h time points with and without metabolic activation), the “in vitro micronucleus assay result” value was “Positive”. In data set [4], the “in vitro MNT result” value is reported as “positive”. In data set [5], the “in vivo micronucleus test result” value is on record as “negative”. For the same molecule, in data set [6], the “BlueScreen HC result” value is “negative”.
For the molecule `CC(=O)C1CC(C)=CC(C)C1C` (stereo not shown) [1-(3,5,6-trimethyl-3-cyclohexen-1-yl)ethan-1-one], the “genotoxic potential conclusion (WoE)” value in data set [2] is listed as “unlikely to have genotoxic potential in vivo”. For the same molecule, the Ames assay result in data set [7] (Escherichia coli strain WP2uvrA without metabolic activation) and in data set [8] was “positive” in each case. For the same molecule, the “Ames assay result, third confirmatory study” value in data set [7] (similar concentrations, E. coli WP2uvrA or TA102) is “no positive effects”. For the same molecule, in data set [3], the “in vitro micronucleus assay result” value is recorded as “negative”. Besides, the “BlueScreen HC result” value in [6] is “negative”. In data set [9], the “mammalian cell line mutagenicity study (HPRT) result” value is “negative”.
`CC(=CC#N)CCc1ccccc1` [3-methyl-5-phenylpent-2-enenitrile]: the “genotoxic potential conclusion (WoE)” value in data set [2] is on record as “not genotoxic”. Also, in data set [4], the “in vitro MNT result” value is “positive”. Moreover, in [5], the “in vivo micronucleus test result” value is on record as “negative”. Further, the “BlueScreen HC result” value in [6] is “negative”. For the same molecule, the “in vitro micronucleus assay result” value in data set [10] (4-h time point with metabolic activation) was “Positive”.
For `CC(C)C12CCC(C)(O)C1C2` (stereo not shown) [4-thujanol], the “in vitro micronucleus study result” value in data set [3] (4-h time point, absence of metabolic activation) is recorded as “positive”. Also, the “in vitro MNT result” value in data set [4] is “positive”. In [5], the “in vivo micronucleus study result” value is given as “negative”. Further, in data set [6], the “BlueScreen HC result” value is “negative”.
Regarding `Cc1cccc2nccnc12` [5-methylquinoxaline], the “genotoxic potential conclusion (WoE)” value in [2] is “devoid of genotoxic activity in vivo”. Moreover, the “in vitro micronucleus study result” value in data set [3] (4-h treatment) was “negative”; in data set [3] (without metabolic activation, 24-h treatment), “positive”. Besides, in [4], the “in vitro MNT result” value is reported as “positive”. In data set [6], the “BlueScreen HC result” value is given as “negative”. Moreover, the “in vivo micronucleus assays result” value in data set [11] (two assays) was “negative”.
`CC(C)C(=O)O` [Isobutyric acid]: the Ames test result in data set [7] is listed as “negative”.
Consider `COc1ccc(COC=O)cc1` [anisyl formate], for which the “in vitro micronucleus assay result” value in data set [3] is given as “negative”. Further, the “BlueScreen HC result” value in data set [6] is given as “negative”. For the same molecule, the “mammalian cell line mutagenicity study (MLA/HPRT) result” value in data set [9] was “negative”.
Take `N#C/C=C/c1ccccc1` [cinnamyl nitrile, Cinnamyl nitrile]: in data set [2], the “genotoxic potential conclusion (WoE)” value is listed as “lack genotoxic potential in vivo”. Besides, the “BlueScreen HC result” value in data set [6] was “negative”. Besides, the “chromosomal aberration assay result” value in [12] is listed as “positive”. Besides, the “in vitro micronucleus result” value in data set [10] (Chinese hamster V79 cells) is on record as “negative”.
With `COC1CC2CCC1(C)C2(C)C` (stereo not shown) [isobornyl methyl ether], the “in vitro micronucleus confirmatory assay result” value in data set [3] (confirmatory assay, dose response not observed) is “increases only at the highest dose level”. The “in vitro micronucleus study result” value in [3] (presence of metabolic activation, 4-h time point) is “positive”. The “3D skin micronucleus study result” value in data set [13] is recorded as “negative”. The “in vitro MNT result” value in [4] was “positive”. Also, the “BlueScreen HC result” value in [6] is given as “negative”.
As for `CC(C)CO` [isobutyl alcohol], the “in vivo micronucleus test result” value in data set [11] is reported as “negative”.
In the case of `COC(=O)CC(C)=O` [methyl acetoacetate, Methyl acetoacetate], the “genotoxic potential conclusion (WoE)” value in data set [2] is listed as “lack genotoxic potential in vivo”. Also, the “in vitro micronucleus result” value in data set [3] (human lymphocytes) is listed as “negative”. Further, the “BlueScreen HC result” value in data set [6] is “negative”. Further, in data set [12], the “chromosomal aberration assay result” value is “positive”.
As for `COC(=O)c1ccccc1N` [methyl anthranilate, Methyl anthranilate], the “BlueScreen HC result” value in data set [6] was “negative”. Besides, the “in vitro chromosomal aberration study result” value in data set [12] (Chinese hamster fibroblast cell line (B 241)) is given as “positive”. Moreover, the “chromosomal aberration assay result” value in data set [12] is “positive”. Further, in [14], the “2-year in vivo carcinogenicity study result” value was “did not show any carcinogenic effects”.
Turning to `CC(=O)/C=C/C1C(C)=CCCC1(C)C` (stereo not drawn) [α-ionone, α-Ionone], the “genotoxic potential conclusion (WoE)” value in data set [2] is “lack genotoxic potential in vivo”. For the same molecule, the “in vitro micronucleus study result” value in [3] (human peripheral lymphocytes) was “negative”. Besides, the “in vivo mouse micronucleus study result” value in [5] is listed as “negative”. Also, in data set [6], the “BlueScreen HC result” value is recorded as “negative”. Moreover, the “chromosomal aberration assay result” value in data set [12] is on record as “positive”.
